# Measured values from patent US20140275166A1, “SPINTRAPS AND SPIN LABELS AND THEIR HYDROXYLAMINES FOR PERI- AND POST-MENOPAUSAL SYNDROME” (priority 2013, published 2014).
# Read-outs that look alike come from different tables or passages of the source.
# Columns and labels:
# [1] = system: SHR; settings: cited from earlier work
# [2] = system: arterioles from intact and OVE females; settings: cited from earlier work
# [3] = system: perimenopausal symptoms, including hot flashes, sweating, and discomfort; assay: Oral treatment of peri- and post-menopausal symptoms in one patient; type: in vivo, human
# Procedure: The reduced form of TEMPOL (TEMPOL-H) or equivalent pharmacologically-active spin label/spintrap is prepared by mixing together 2 grams of TEMPOL or a pharmacologically effective amount of another spin-label or spin trap such as methynitrosopropane, 20 grams of ascorbic acid or other reducing compound in 100 ml of distilled water. The formulation is used as is. The solution is slightly-bitter. The formulation can be administered diluted in a suitable liquid such as juice, tea, or coffee. An equivalent dry form as 10 mg of tempol mixed with 100 mg of ascorbic acid or equivalent reducing substance can be easily prepared in capsule or tablet form.
# One-half ml of the above solution, comprising 10 mg TEMPOL plus 100 mg ascorbic acid, was administered orally 1-3 times a day to a 50 kg person with perimenopausal symptoms, including hot flashes, sweating, and discomfort.
# Parental modes of administration such as intravenous, intramuscular, subcutaneous, intraperitoneal, transrectal and so forth are also possible, as are topical modes of administration such as in lotions, creams, gels, and topically-compatible suspensions and solutions.
# [4] = system: acute ischemic stroke; settings: animal models versus humans; cited from earlier work
# [5] = system: fibrocystic disease of breast; settings: in vivo; cited from earlier work
# [6] = 10 mg TEMPOL plus 100 mg ascorbic acid orally 1-3 times a day, 50 kg person
smiles,measurement,setting,value
"CC1(C)CC(O)CC(C)(C)N1[O] [TEMPOL, 4-hydroxy-TEMPO]",antihypertensive response,[1]; male SHR and female SHR given tempol for the first 15 weeks of life,had an antihypertensive response
same,antihypertensive response,[1]; postmenopausal female SHR,no response was observed
same,BP lowering by sex and age,"[1]; young female versus young male SHR, and after menopause",more effective in lowering the BP of young female than young male SHR and became less effective after menopause
same,flow-induced increases in NO and subsequent vasodilation,[2],blunted flow-induced increases in NO and subsequent vasodilation
same,efficacy on perimenopausal symptoms,"[3]; Tempol itself, without reducing agent, at the same doses",effective at the same doses
"CC(C)(C)[N+]([O-])=Cc1ccccc1 [Phenylbutylnitrone, 1-alpha-phenyl-tert-butyl nitrone]",efficacy on perimenopausal symptoms,[3]; 100 mg dose per day,also effective
"CC(C)(C)[N+]([O-])=Cc1ccc(S(=O)(=O)[O-])cc1S(=O)(=O)[O-].[Na+].[Na+] [NXY-059, disulfonyl PBN]",neuroprotective efficacy,[4],"effective in animal models, but not in humans"
"CC1(C)CC(O)CC(C)(C)N1O [TEMPOL-H, the hydroxylamine reduced form of the nitroxide 4-hydroxy-2,2,6,6-tetramethylpiperidin-1-yloxy]",efficacy in fibrocystic disease of breast,[5],effective
same,skin changes typical of menopause,[3]; 10 mg TEMPOL plus 100 mg ascorbic acid orally 1-3 times a day,yet to develop the skin changes typical of menopause
same,effect on perimenopausal symptoms,[3]; [6],"disappearance of hot flashes, sweating, and discomfort"
same,time to first results of treatment,[3]; [6],1-2 weeks
same,symptoms on cessation of treatment,"[3]; after long-term relief, treatment stopped",symptoms eventually reappear on cessation of treatment
same,perimenopausal symptoms during earlier TEMPOL-H treatment for fibrocystic disease of breast,"[3]; same patient, menses stopped",had not presented with perimenopausal symptoms
same,symptoms upon resumption of treatment,[3]; treatment resumed after cessation,symptoms disappear
